These results are taken from patent publication US11142527B2, “Dihydropyrimidine compounds and uses thereof in medicine” (SUNSHINE LAKE PHARMA CO., LTD., priority 2017, dated 2021).

As usually defined, the EC50 is the concentration needed to bring the measured effect to its halfway point.

The test system of the assay is HBV. Briefly: Test of anti HBV activity in vitro (viral DNA by qPCR). It counts as cell-based. The following applies: Hepatitis B virus; HepG2.2.15 cells, viral DNA in cell culture supernatant by qPCR; read-out: EC50 values of the compound of the invention on viral replication. The method, then:
Test 1: Test Method of Calculating Anti HBV EC50
HBV Cell Line and Culture Conditions
HepG2.2.15 (SELLS, PNAS, 1987 and SELLS, JV, 1988) chromosomes have an integrated complete HBV genome, and stably express viral RNA and viral protein. HepG2.2.15 cells can secrete mature HBV particles, HBsAg and HBeAg, to medium. HepG2.2.15 cells were cultured in DMEM containing 10% fetal bovine serum, 100 U/mL penicillin, 100 U/mL streptomycin, 1% non essential amino acid, 1 mM sodium pyruvate and 300 μg/mL G418.
Viral particles DNA secreted from HepG2.2.15 cells can be quantified by qPCR, and the effect of the compound on viral replication can be detected.
Test of Anti HBV Activity In Vitro
8000 HepG 2.2.15 cells per well were seeded into a 96-well plate, the plate was cultured at 37° C. and 5% CO2 for 3 days till the cells grew to full wells. Old liquid medium can be removed and replaced with new medium (200 μL) on day 0.
Formulating the compound and treating the cells in the experiment of anti virus: the compound was dissolved in DMSO to a concentration of 30 mM, and then the compound solution was diluted with DMSO to a concentration of 800 μM, and then eight dilutions at 4 fold were performed, the highest concentration is 800 μM. The serial diluted compound was added to the above plate at 1 μL per well, the highest final concentration in the experiment is 4 μM (200 fold dilution). TDF (tenofovir dipiroxil fumarate, Selleck, Cat S1400) has a highest concentration of 4 μM as a positive control. 1 μL of DMSO was added in to the […] at a final concentration of 0.5%, TDF was added in to the […] at a final concentration of 1 μM.
Detection of Viral Genomic DNA by aPCR
Primer: HBV-For-202, […]; HBV-Rev-315, […]. Copies of virus can be calculated using a standard curve plotted by using plasmid containing HBV genome and using SYBR Premix Ex Taq II—Takara DRR081S kit and 1 μL cell culture supernatant as a template. EC50 values of the compound on viral replication were calculated by a four parametric nonlinear regression model using Graphpad Prism 5 software to manage concentration—viral copy number.
Background: Real-time PCR tracks product formation cycle by cycle.
In the case of `COC(=O)C1=C(CN2CCN3C(=O)N(CC#Cc4ccc(C(N)=O)cc4)C[C@@H]3C2)NC(c2nccs2)=N[C@H]1c1ccc(F)cc1Cl` [Example 39, (R)-methyl 6-(((S)-2-(3-(4-carbamoylphenyl)prop-2-yn-1-yl)-3-oxohexahydroimidazo[1,5-a]pyrazin-7(1H)-yl)methyl)-4-(2-chloro-4-fluorophenyl)-2-(thiazol-2-yl)-1,4-dihydropyrimidine-5-carboxylate], the EC50 is 6.6 nM. In the case of `CCc1c[nH]c(-c2ccc(N3C[C@@H]4CN(CC5=C(C(=O)OC)[C@H](c6ccc(F)cc6Cl)N=C(c6nccs6)N5)CCN4C3=O)cc2)n1` [Example 109, (R)-methyl 4-(2-chloro-4-fluorophenyl)-6-(((S)-2-(4-(4-ethyl-1H-imidazol-2-yl)phenyl)-3-oxohexahydroimidazo[1,5-a]pyrazin-7(1H)-yl)methyl)-2-(thiazol-2-yl)-1,4-dihydropyrimidine-5-carboxylate], the EC50 was 12.4 nM. As for `COC(=O)C1=C(CN2CCN3C(=O)N(c4nc(-c5ccc(C(=O)O)cc5)cs4)C[C@@H]3C2)NC(c2nccs2)=N[C@H]1c1ccc(F)cc1Cl` [Example 15, 4-(2-((S)-7-(((R)-6-(2-chloro-4-fluorophenyl)-5-(methoxycarbonyl)-2-(thiazol-2-yl)-3,6-dihydropyrimidin-4-yl)methyl)-3-oxohexahydroimidazo[1,5-a]pyrazin-2(3H)-yl)thiazol-4-yl)benzoic acid], the figure is 10.8 nM; as for `COC(=O)C1=C(CN2CCN3C(=O)N(c4ccc(Oc5ccc(C(=O)O)cc5)cc4)C[C@@H]3C2)NC(c2nccs2)=N[C@H]1c1ccc(F)cc1Cl` [Example 6, 4-(4-((S)-7-(((R)-6-(2-chloro-4-fluorophenyl)-5-(methoxycarbonyl)-2-(thiazol-2-yl)-3,6-dihydropyrimidin-4-yl)methyl)-3-oxohexahydroimidazo[1,5-a]pyrazin-2(3H)-yl)phenoxy) benzoic acid], 14 nM; as for `COC(=O)C1=C(CN2CCN3C(=O)N(c4nc(-c5cccc(CCC(=O)O)c5)cs4)C[C@@H]3C2)NC(c2nccs2)=N[C@H]1c1ccc(F)cc1Cl` [Example 140, 3-(3-(2-((S)-7-(((R)-6-(2-chloro-4-fluorophenyl)-5-(methoxycarbonyl)-2-(thiazol-2-yl)-3,6-dihydropyrimidin-4-yl)methyl)-3-oxohexahydroimidazo[1,5-a]pyrazin-2(3H)-yl)thiazol-4-yl)phenyl)propanoic acid], 18.3 nM. `COC(=O)C1=C(CN2CCN3C(=O)N(c4ccc5[nH]c(C6CCCN6C)nc5c4)C[C@@H]3C2)NC(c2nccs2)=N[C@H]1c1ccc(F)cc1Cl` (stereo partly drawn) [Example 108, (4R)-methyl 4-(2-chloro-4-fluorophenyl)-6-(((8aS)-2-(2-(1-methylpyrrolidin-2-yl)-1H-benzo[d]imidazol-5-yl)-3-oxohexahydroimidazo[1,5-a]pyrazin-7(1H)-yl)methyl)-2-(thiazol-2-yl)-1,4-dihydropyrimidine-5-carboxylate]: the EC50 was 6.8 nM. For `COC(=O)C1=C(CN2CCN3C(=O)N(c4ccc(-c5ccc(C(=O)O)cc5)cc4F)C[C@@H]3C2)NC(c2nccs2)=N[C@H]1c1ccc(F)cc1Cl` [Example 113, 4′-((S)-7-(((R)-6-(2-chloro-4-fluorophenyl)-5-(methoxycarbonyl)-2-(thiazol-2-yl)-3,6-dihydropyrimidin-4-yl)methyl)-3-oxohexahydroimidazo[1,5-a]pyrazin-2(3H)-yl)-3′-fluoro-[1,1′-biphenyl]-4-carboxylic acid], the 50% effective concentration (EC50) is 23.9 nM. In the case of `COC(=O)C1=C(CN2CCN3C(=O)N(c4ccc(C5(C(=O)O)CCCCC5)cc4)C[C@@H]3C2)NC(c2nccs2)=N[C@H]1c1ccc(F)cc1Cl` [Example 30, 1-(4-((S)-7-(((R)-6-(2-chloro-4-fluorophenyl)-5-(methoxycarbonyl)-2-(thiazol-2-yl)-3,6-dihydropyrimidin-4-yl)methyl)-3-oxohexahydroimidazo[1,5-a]pyrazin-2(3H)-yl)phenyl) cyclohexanecarboxylic acid], the EC50 was 9 nM.
